The values that follow come from PubChem BioAssay (NCI).

SMILES strings stand for the structures. “And” between values parts separate entries of the source, which are not always exact repeats. Identical values can stand only once.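 Results reflect a 48-hour exposure of cells in 96-well plates to compound at five concentrations. At the GI50, growth is halved. The concentration for full growth arrest is given as TGI.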

The subject of the first test is SF-295 CNS. As to the kind of experiment: growth of human tumour cells (NCI), 48 h.
For `COc1ccccc1/C=C/C(=O)/C=C/c1ccccc1O`, the GI50 was 1990 nM and the TGI came out at 5.23 µM.
The like results for `CC(=O)[O-].CC(=O)[O-].CC(=O)[O-].CC(=O)[O-].[Mo+2].[Mo+2]` were, in that order, greater than 100000 nM and greater than 100 µM.
With `Cc1ccccc1Nc1nc2c(s1)C(=O)c1ccccc1C2=O`, the TGI worked out at 32.9 µM.
The same measure, in the same setting: next, `Cc1nnc(N/N=C(/C(=O)C(C#N)c2ccccc2)C(C#N)c2ccccc2)n1N` (stereo not drawn): 13.7 µM; `COc1c(Br)cc(Br)c(OC)c1-c1[nH]c(Br)c(Br)c1Br`: 17.4 µM.
With `OB1OCc2cc(/C=C/c3cccc(C(F)(F)F)c3)ccc21`, the GI50 was 432 nM and the TGI stood at 16.1 µM.
For `CCOC(=O)c1ccc(N[C@@H]2c3cc4c(cc3C(C3=CC(=O)C(=O)C(OC)=C3)[C@H]3C(=O)OCC32)OCO4)cc1` (stereo partly drawn), the TGI came to 6.87 µM.
On the same count and under the same terms, under `CNC(SC)=C1C(=O)OC(C)(C)OC1=O` stands greater than 100 µM.
`Cn1c(/C(C#N)=C/c2ccc3ccccc3c2)cc2ccccc21`: the GI50 was 110 nM and the TGI is 0.463 µM.
Turning to `CC(CC(=O)Nc1ccc(NC(=O)CC(C)N=NC(N)=S)cc1)N=NC(N)=S` (stereo not drawn), the TGI was greater than 100 µM.
Still for that read-out and setting: under `O=c1c(Cl)c(Cl)cnn1CCc1ccncc1` stands 83 µM.

The test system of the next test is SK-MEL-5 melanoma. As to the kind of experiment: growth of human tumour cells (NCI), 48 h.
With `Cc1cc(Nc2nc(SCc3ccc(C(=O)Nc4ccc(F)cc4N)cc3)nn3cccc23)n[nH]1`, the GI50 is 334 nM and the TGI stood at 2.43 µM.
Regarding `COc1ccccc1-c1cc(=O)c2ccc(C)nc2[nH]1`, the GI50 is 51600 nM and the TGI is greater than 100 µM.
The compound `OC(c1ccc(Br)cc1)(c1cccs1)C1CC1` (stereo not drawn) came in with a TGI of 33 µM.
Consider `COc1ccc(-c2nnc(N3CCN(C(=O)CN4CCN(c5ccc(OC)cc5)CC4)CC3)nc2-c2ccc(OC)cc2)cc1`, for which the GI50 was 2400 nM and the TGI was determined as 6.83 µM.
For `C[n+]1c2ccccc2cc2c(CNC(CCCN=C(N)N)C(=O)O)cccc21` (stereo not drawn) the same measures were 5330 nM and 17.8 µM.
`Cc1cc2c(Br)cc(Br)c(O)c2nc1C(=O)c1ccccc1` gave a TGI of 29.8 µM.
Regarding `Cn1cc(-c2csc(-c3cn(C)c4ccccc34)n2)c2cnccc21`, the GI50 is 1690 nM and the TGI is 3.07 µM.
The like results for `COc1ccccc1/C=C/C(=O)/C=C/c1ccccc1O` were, in that order, 1460 nM and 2.78 µM.
For `CC(=O)[O-].CC(=O)[O-].CC(=O)[O-].CC(=O)[O-].[Mo+2].[Mo+2]` the same measures were greater than 100000 nM and greater than 100 µM.
With `Cc1ccccc1Nc1nc2c(s1)C(=O)c1ccccc1C2=O`, the TGI is 7.12 µM.
Still for that read-out and setting: next, `Cc1nnc(N/N=C(/C(=O)C(C#N)c2ccccc2)C(C#N)c2ccccc2)n1N` (stereo not drawn): 32.7 µM; `COc1c(Br)cc(Br)c(OC)c1-c1[nH]c(Br)c(Br)c1Br`: 20.5 µM.
On to `OB1OCc2cc(/C=C/c3cccc(C(F)(F)F)c3)ccc21`, for which the GI50 was 2050 nM and the TGI came to 81.4 µM.
In turn, `CCOC(=O)c1ccc(N[C@@H]2c3cc4c(cc3C(C3=CC(=O)C(=O)C(OC)=C3)[C@H]3C(=O)OCC32)OCO4)cc1` (stereo partly drawn) displayed a TGI of 11.7 µM.
`CNC(SC)=C1C(=O)OC(C)(C)OC1=O`: the TGI was greater than 100 µM.
On to `Cn1c(/C(C#N)=C/c2ccc3ccccc3c2)cc2ccccc21`, for which the GI50 was 455 nM and the TGI was greater than 100 µM.
Take `CC(CC(=O)Nc1ccc(NC(=O)CC(C)N=NC(N)=S)cc1)N=NC(N)=S` (stereo not drawn): the TGI is greater than 100 µM.
Consider `CC(C)c1ccccc1NC(=O)/C(Cl)=C1/Sc2ccccc2NC1=O`, for which the TGI worked out at 78.8 µM.
Take `O=C(O)CCC(NC(=S)S)C(=O)O.[Na+].[Zn+2]` (stereo not drawn): the GI50 is greater than 50000 nM and the TGI is greater than 50 µM.
`O=c1c(Cl)c(Cl)cnn1CCc1ccncc1` had a TGI of 30.4 µM.

In a further test the test system is U251 CNS. As to the kind of experiment: growth of human tumour cells (NCI), 48 h.
With `Cc1cc(Nc2nc(SCc3ccc(C(=O)Nc4ccc(F)cc4N)cc3)nn3cccc23)n[nH]1`, the GI50 was 343 nM and the TGI is greater than 100 µM.
The like results for `COc1ccccc1-c1cc(=O)c2ccc(C)nc2[nH]1` were, in that order, greater than 100000 nM and greater than 100 µM.
For `OC(c1ccc(Br)cc1)(c1cccs1)C1CC1` (stereo not drawn), the TGI is 35.4 µM.
Take `COc1ccc(-c2nnc(N3CCN(C(=O)CN4CCN(c5ccc(OC)cc5)CC4)CC3)nc2-c2ccc(OC)cc2)cc1`: the GI50 was 5310 nM and the TGI turned out to be 66.1 µM.
Consider `C[n+]1c2ccccc2cc2c(CNC(CCCN=C(N)N)C(=O)O)cccc21` (stereo not drawn), for which the GI50 is 2120 nM; the TGI is 4.28 µM and 6.85 µM.
Compound `Cc1cc2c(Br)cc(Br)c(O)c2nc1C(=O)c1ccccc1` displayed a TGI greater than 71.3 µM.
As for `Cn1cc(-c2csc(-c3cn(C)c4ccccc34)n2)c2cnccc21`, the GI50 was 1860 nM and the TGI worked out at 3.45 µM.
For the compound `COc1ccccc1/C=C/C(=O)/C=C/c1ccccc1O`, the GI50 was 326 nM and the TGI is 1.28 µM.
The like results for `CC(=O)[O-].CC(=O)[O-].CC(=O)[O-].CC(=O)[O-].[Mo+2].[Mo+2]` were, in that order, greater than 100000 nM and greater than 100 µM.
The compound `Cc1ccccc1Nc1nc2c(s1)C(=O)c1ccccc1C2=O` gave a TGI of 8.83 µM.
`Cc1nnc(N/N=C(/C(=O)C(C#N)c2ccccc2)C(C#N)c2ccccc2)n1N` (stereo not drawn) displayed a TGI greater than 83.1 µM.
For `COc1c(Br)cc(Br)c(OC)c1-c1[nH]c(Br)c(Br)c1Br`, the TGI came to 25.7 µM.
In the case of `OB1OCc2cc(/C=C/c3cccc(C(F)(F)F)c3)ccc21`, the GI50 was 640 nM and the TGI was determined as 17.3 µM.
Compound `CCOC(=O)c1ccc(N[C@@H]2c3cc4c(cc3C(C3=CC(=O)C(=O)C(OC)=C3)[C@H]3C(=O)OCC32)OCO4)cc1` (stereo partly drawn) returned a TGI of 4.77 µM.
Still for that read-out and setting: under `CNC(SC)=C1C(=O)OC(C)(C)OC1=O` stands 37.7 µM.
Consider `Cn1c(/C(C#N)=C/c2ccc3ccccc3c2)cc2ccccc21`, for which the GI50 was 249 nM and the TGI is greater than 100 µM.
`CC(C)c1ccccc1NC(=O)/C(Cl)=C1/Sc2ccccc2NC1=O` came in with a TGI greater than 100 µM.
Take `O=C(O)CCC(NC(=S)S)C(=O)O.[Na+].[Zn+2]` (stereo not drawn): the GI50 is greater than 50000 nM and the TGI is greater than 50 µM.
